According to US5482942A, “(3,4-dioxocyclobuten-1-yl)chromene, indene, and dihydronaphthalenone derivatives as smooth muscle relaxants” (American Home Products Corporation, priority 1994, dated 1996):

Columns and labels:
Isolated Rat Bladder = assay: Inhibition of contractions in isolated rat bladder strips (bladder smooth muscle relaxing activity); set-up: species or system Sprague-Dawley rats; conditions: 0.5 h, 15 mM KCl-enhanced contractions, 30 min challenge, read-out: IC50 or (% Inhibition of Bladder Contraction at 30 μM)
Procedure: Bladder smooth muscle relaxing activity of the compounds of this invention was established in accordance with standard pharmaceutically accepted test procedures in representative compounds as follows:
Sprague-Dawley rats (150-200 g) are rendered unconscious by CO2 asphyxiation and then euthanized by cervical dislocation. The bladder is removed into warm (37° C.) physiological salt solution (PSS) of the following composition (mM): NaCl, 118.4; KCl, 4.7; CaCl2, 2.5; […]; NaHCO3, 24.9; KH2 PO4, 1.2; glucose, 11.1; EDTA, 0.023; gassed with […]; pH 7.4. The bladder is opened and then cut into strips 1-2 mm in width and 7-10 mm in length. The strips are subsequently suspended in a 10 ml tissue bath under an initial resting tension of 1.5 g. The strips are held in place by two surgical clips one of which is attached to fixed hook while the other is attached to an isometric force transducer. […] The carbachol is then washed out and the tissue allowed to relax to its resting level of activity. Following one further 30 min period of recovery an additional 15 mM KCl are introduced into the tissue bath. […] Contractile activity is measured for each compound or vehicle concentration during the last min of a 30 min challenge. […]

[1] = test system: Isolated Rat Aortic Tissue; assay: Inhibition of contractions in isolated rat aortic rings (aortic smooth muscle relaxing activity); set-up: species or system Sprague-Dawley rats; conditions: isolated rat thoracic aorta rings, 25 mM KCl contracture, cumulative addition; read-out: IC50 or (% Inhibition of Aorta Contraction at 30 μM)
Procedure: Aortic smooth muscle relaxing activity of the compounds of this invention was established in accordance with standard pharmaceutically accepted test procedures in representative compounds as follows:
Sprague-Dawley rats (150-200 g) are rendered unconscious by CO2 asphyxiation and then euthanized by cervical dislocation. The thoracic aorta is removed into warm (37° C.) Krebs-Henseleit solution. The aorta is cleaned of fat and loose adventitia and cut into rings 3-4 mm in width. The rings are subsequently suspended between two stainless steel wire tissue holders in a 10 ml tissue bath. One wire tissue holder is attached to fixed hook while the other is attached to an isometric force transducer. Resting tension is set at 1.0 g. The tissues are allowed to recover for a period of 60 mins prior to beginning the experiment. The tissues are challenged with 25 mM KCl to elicit a contracture. The tissue are then washed repeatedly with fresh Krebs-Henseleit solution over a period of 30 mins and allowed to recover to baseline tension. 25 mM KCl is then introduced into the tissue bath to evoke a contracture that is allowed to stabilize for not less than 45 mins. Increasing concentrations of test compound or vehicle are then added to the tissue bath in a cumulative fashion.
Isometric force developed by the aortic rings is measured using force transducer and recorded on a polygraph. […]

IC50 (Isolated Rat Bladder)	IC50 [1]	Structure (SMILES)
390 ± 40 nM	150 ± 20 nM	CC1(C)C=C(c2c(N)c(=O)c2=O)c2cc(C#N)ccc2O1 [Example 2, 4-(2-Amino-3,4-dioxo-cyclobut-1-enyl)-2,2-dimethyl-2H-chromene-6-carbonitrile]
4100 ± 1800 nM	560 ± 40 nM	CNc1c(C2=CC(C)(C)Oc3ccc(C#N)cc32)c(=O)c1=O [Example 3, 2,2-Dimethyl-4-(2-methylamino-3,4-dioxo-cyclobut-1-enyl)-2H-chromene-6-carbonitrile]
